Assay in all cases: growth of human tumour cells (NCI), 48 h
Test [1] has as its system OVCAR-8 ovarian.
Test [2] deals with NCI-H226 lung.
The test system of test [3] is RPMI-8226 leukemia.
Test [4] has as its system M14 melanoma.
Test [5] concerns LOX IMVI melanoma.
The subject of test [6] is UACC-62 melanoma.
In test [7] the test system is TK-10 renal.

Molecules are shown by their SMILES. “And” between values parts separate entries of the source, which are not always exact repeats. Equal values may be shown once.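 Cultured in 96-well plates, cells were exposed to test compound for 48 hours across five concentrations. The concentration for 50% growth inhibition is given as GI50. TGI denotes the concentration required for complete inhibition of growth.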

As to `Clc1cc(Cl)c(OCC#CI)cc1Cl`, the GI50 in test [1] is 3.39 µM; in test [2], 19.3 µM; in test [3] it was 2.27 µM; in test [4] it was 2.13 µM; in test [5] it was 1.33 µM; in test [6], 5.05 µM. Besides, the GI50 in test [7] is 3.45 µM. The TGI stood at 13.1 µM in test [1]; 40.8 µM in test [2]; 8.38 µM in test [3]; 5.41 µM in test [4]; 2.74 µM in test [5]; 19.4 µM in test [6]. The TGI in test [7] was 13.2 µM.

In the case of `C=CCOC1OC(CO[Si](C)(C)C(C)(C)C)C(OCc2ccccc2)C(OCc2ccccc2)C1OCc1ccccc1` (stereo not drawn), the TGI in test [1], in test [2], in test [3], in test [4], in test [5] and in test [6] was > 100 µM throughout. For the same compound, the TGI in test [7] was > 100 µM.

Turning to `O=C(/C(=C/c1ccc([N+](=O)[O-])cc1)c1ccccc1)c1ccccc1`, the values for the GI50 in test [3], in test [4] and in test [7] were 2.36 µM, 3.08 µM and 3.43 µM, respectively. The TGI in test [3] was 6.49 µM; in test [4], > 100 µM; in test [7] it was > 100 µM.

On to `COc1cc2c(c(OC)c1OC)-c1ncc3cc(OC)c(OC)c(OC)c3c1C2`, for which the GI50 in test [1] is 6.09 µM; in test [3], > 100 µM; in test [4], 50.7 µM; in test [5] it was 15.9 µM; in test [6], 17.4 µM; in test [7] it was 23.3 µM. Besides, the TGI in test [1] is 34.7 µM; in test [3], > 100 µM; in test [4] it was > 100 µM; in test [5], 29.9 µM; in test [6] it was 34 µM; in test [7] it was 80.6 µM.

Regarding `CS(=O)(=O)c1ccc(C(=O)Nc2ccc(Cl)c(-c3ccccn3)c2)c(Cl)c1`, the TGI in test [1] was > 100 µM and 25.5 µM; in test [2], > 100 µM and 26.5 µM; in test [3] it was > 100 µM and 10.6 µM; in test [4], > 100 µM and 11.1 µM; in test [5] it was > 100 µM and 10.1 µM; in test [7], > 100 µM and 34.7 µM.

On to `CCN(C(=O)N1CCN(c2cc3c(cc2F)c(=O)c(C(=O)O)cn3C2CC2)CC1)c1nc(-c2ccc(C)cc2)cs1`, for which the GI50 is 1.41 µM in test [1], 0.928 µM in test [4], 0.837 µM in test [6] and 2.7 µM in test [7]. The TGI in test [1] was > 100 µM; in test [4], > 100 µM; in test [6], > 100 µM; in test [7] it was > 33.3 µM.

On to `O=C1c2ccccc2-c2c1c1ccc([N+](=O)[O-])cc1c(=O)n2CCCBr`, for which the GI50 is > 100 µM in test [1]; 36 µM in test [3]; 3.26 µM in test [4]; 4.18 µM in test [5]; > 100 µM in test [6]. For the same compound, the TGI in test [1], in test [3], in test [4], in test [5] and in test [6] was > 100 µM throughout.

`C=CC(=O)N(C)[C@H]1C[C@H]2OC(C)(C1OC)n1c3ccccc3c3c4c(c5c6ccccc6n2c5c31)C(=O)NC4` (stereo partly drawn): the GI50 was 0.217 µM in test [1]; 0.0963 µM in test [2]; 0.103 µM in test [3]; 0.115 µM in test [4]; 0.0823 µM in test [5]; 0.13 µM in test [6]. Moreover, the TGI in test [2] stood at 0.92 µM; in test [3] it was 1.5 µM; in test [4], 1.74 µM; in test [5], 0.67 µM; in test [6], 0.835 µM.

For `COc1cc2nc(N3CCCC3)nc(NCC3CCCCC3)c2cc1OC`, the GI50 in test [1] was 1.59 µM; in test [2], 1.94 µM; in test [4], 1.44 µM; in test [5] it was 0.281 µM; in test [6], 1.74 µM; in test [7], 1.73 µM. For the same compound, the TGI in test [1] is 3.52 µM; in test [2], 4.05 µM; in test [4] it was 2.88 µM; in test [5] it was 0.793 µM; in test [6] it was 3.21 µM; in test [7], 3.28 µM.

Take `COc1ccc(C2CC(c3cc(OC)c(OC)c(OC)c3)=NN2C(C)=O)cc1OCC(=O)Nc1nc2ccc(C(F)(F)F)cc2s1` (stereo not drawn): the GI50 in test [1] was 3.36 µM; in test [3], 2.21 µM; in test [4] it was 6.44 µM; in test [5], 3.36 µM; in test [6], 3.77 µM; in test [7], 2.85 µM. Besides, the TGI was > 100 µM in test [1]; 7.09 µM in test [3]; > 100 µM in test [4]; > 100 µM in test [5]; > 100 µM in test [6]; 7.77 µM in test [7].

For the compound `C=C1CC[C@@H]2[C@](C)(COC(C)=O)[C@@H](O)CC[C@@]2(C)[C@@H]1COc1ccc2ccc(=O)oc2c1`, the GI50 was > 100 µM in test [1]; 26.3 µM in test [3]; > 100 µM in test [4]; > 100 µM in test [5]; > 100 µM in test [6]; > 100 µM in test [7]. Further, the TGI in test [1], in test [3], in test [4], in test [5], in test [6] and in test [7] was > 100 µM each time.

`COc1ccc(C(OCC2OC(n3ccc(NC(=O)c4ccccc4)nc3=O)C(O)C2O)(c2ccccc2)c2ccccc2)cc1` (stereo not drawn): the TGI came to 3.22 µM in test [1]; 7.87 µM in test [2]; 4.64 µM in test [3]; 3.62 µM in test [4]; 21 µM in test [6].

Take `Cn1c2c(cc(S(=O)(=O)c3ccccc3)c1=O)CCc1c-2cnn1-c1ccc(Cl)cc1`: the GI50 in test [1] was 2.73 µM; in test [2], 2.22 µM; in test [5], 4.09 µM; in test [6], 2.35 µM; in test [7] it was 2.26 µM. Besides, the TGI turned out to be 6.22 µM in test [1]; 4.94 µM in test [2]; 17.3 µM in test [5]; 5.07 µM in test [6]; 5.17 µM in test [7].

Take `CCN=C1C=CC(=C(c2ccc(N)cc2)c2ccc(N(CC)CC)c(C)c2)C=C1`: the GI50 was 0.149 µM in test [3], 0.349 µM in test [4], 0.248 µM in test [6] and 0.396 µM in test [7]. The TGI came to 0.882 µM in test [3], 1.77 µM in test [4], 0.866 µM in test [6] and 10.7 µM in test [7].

For the origin of these results see PubChem BioAssay (NCI).
